# Measurements: patent US20090270350A1, “Pyridinone Pyrazole Urea and Pyrimidinone Pyrazole Urea Derivatives” (PFIZER INC., priority 2006, published 2009)
# Like-named read-outs stand apart in the source and are kept apart here.
# Target: p38α (Homo sapiens, UniProt Q16539)
# Test: p38α/MK2 cascade assay
# Format: biochemical
# Settings: read-out: p38a/MK2 Cascade 40 min Pre-Incuabtion (% Inhibition): IC50
# Summary of the method: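 In a cascade format, p38α was preincubated 40 min with inhibitor (1000–0.05 nM) before adding 1 nM nonactive MK2 (54-400), 5 μM MgATP and 0.5 μM FITC-Hsp27 peptide. Reaction ran 60 min in HEPES pH 7.5 with MgCl2, DTT, 2% DMSO, then EDTA-quenched. Peptide phosphorylation was measured by Caliper mobility shift to give IC50.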
# [1] = Table 1, inhibitors preincubated with p38α for 40 minutes, phosphorylation of Hsp27 peptide by MK-2, Caliper LabChip 3000
# [2] = Table 2, same p38α/MK2 cascade assay, 40 minutes preincubation
# Sequence of p38α (Q16539 whole entry): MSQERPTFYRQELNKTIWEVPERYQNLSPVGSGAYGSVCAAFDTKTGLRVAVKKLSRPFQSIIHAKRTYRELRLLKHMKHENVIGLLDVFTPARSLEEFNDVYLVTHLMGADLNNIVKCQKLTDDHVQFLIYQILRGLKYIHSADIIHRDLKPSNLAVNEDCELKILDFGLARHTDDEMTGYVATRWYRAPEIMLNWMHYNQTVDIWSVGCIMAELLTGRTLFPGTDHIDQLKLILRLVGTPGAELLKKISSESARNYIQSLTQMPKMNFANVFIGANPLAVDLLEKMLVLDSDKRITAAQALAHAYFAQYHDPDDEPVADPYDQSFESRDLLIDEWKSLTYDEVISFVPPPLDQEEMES
Compound,IC50 [1] [nM],IC50 [2] [nM]
COc1ccc(Cn2c(C)cc(OCc3ccccc3CNC(=O)Nc3cc(C(C)(C)C)nn3-c3cccc(Cl)c3)c(Br)c2=O)cc1 [Example 98],4.23,
"COc1ccc(Cn2c(C)cc(OCc3ccccc3CNC(=O)Nc3cc(C(C)(C)C)nn3-c3ccc(C)cc3)c(Br)c2=O)c(OC)c1 [Example 122, 1-[2-({[3-bromo-1-(2,4-dimethoxybenzyl)-6-methyl-2-oxo-1,2-dihydropyridin-4-yl]oxy}methyl)benzyl]-3-[3-tert-butyl-1-(4-methylphenyl)-1H-pyrazol-5-yl]urea]",15.4,
"COc1cccc(Cn2c(C)cc(OCc3ccccc3CNC(=O)Nc3cc(C(C)(C)C)nn3-c3cccc(OCCOC4CCCCO4)c3)cc2=O)c1 (stereo not drawn) [Example 36, 1-(3-tert-butyl-1-{3-[2-(tetrahydro-2H-pyran-2-yloxy)ethoxy]phenyl}-1H-pyrazol-5-yl)-3-[2-({[1-(3-methoxybenzyl)-6-methyl-2-oxo-1,2-dihydropyridin-4-yl]oxy}methyl)benzyl]urea]",142,
"COc1ccc(Cn2c(C)cc(OCc3ccccc3CNC(=O)Nc3cc(C(C)(C)C)nn3-c3ccc(O)c(Cl)c3)c(Cl)c2=O)cc1Cl [Example 66, 1-[3-tert-butyl-1-(3-chloro-4-hydroxyphenyl)-1H-pyrazol-5-yl]-3-[2-({[3-chloro-1-(3-chloro-4-methoxybenzyl)-6-methyl-2-oxo-1,2-dihydropyridin-4-yl]oxy}methyl)benzyl]urea]",9.7,
"COc1ccc(Cn2c(C)cc(OCc3ccccc3CNC(=O)Nc3cc(C4CC4)nn3-c3ccccc3)c(Br)c2=O)cc1 [Example 102, 1-[2-({[3-bromo-1-(4-methoxybenzyl)-6-methyl-2-oxo-1,2-dihydropyridin-4-yl]oxy}methyl)benzyl]-3-(3-cyclopropyl-1-phenyl-1H-pyrazol-5-yl)urea]",182,
"Cc1ccc(-n2nc(C(C)(C)C)cc2NC(=O)NCc2ccccc2COc2cc(C)n(Cc3ccccc3)c(=O)c2Br)cc1 [Example 106, 1-(2-{[(1-benzyl-3-bromo-6-methyl-2-oxo-1,2-dihydropyridin-4-yl)oxy]methyl}benzyl)-3-[3-tert-butyl-1-(4-methylphenyl)-1H-pyrazol-5-yl]urea]",4.59,
"CNC(=O)c1ccc(C)c(-n2c(C)cc(OCc3ccc(F)cc3CNC(=O)Nc3cc(C(C)(C)C)nn3-c3cccc(OC)c3)c(Cl)c2=O)c1 [Example 208, 3-{4-[(2-{[({[3-tert-butyl-1-(3-methoxyphenyl)-1H-pyrazol-5-yl]amino}carbonyl)amino]methyl}-4-fluorobenzyl)oxy]-3-chloro-6-methyl-2-oxopyridin-1(2H)-yl}-N,4-dimethyl-benzamide]",,1.79
"COc1cccc(Cn2c(C)cc(OCc3ccccc3CNC(=O)Nc3cc(C(C)(C)C)nn3-c3cccc(O)c3)c(Cl)c2=O)c1 [Example 52, 1-[3-tert-butyl-1-(3-hydroxyphenyl)-1H-pyrazol-5-yl]-3-[2-({[3-chloro-1-(3-methoxybenzyl)-6-methyl-2-oxo-1,2-dihydropyridin-4-yl]oxy}methyl)benzyl]urea]",6.2,
"COc1cccc(Cn2c(C)cc(OCc3ccc(F)cc3CNC(=O)Nc3cc(C(C)(C)C)nn3-c3ccc(O[Si](C)(C)C(C)(C)C)c(Cl)c3)c(Cl)c2=O)c1 [Example 42, 1-[3-tert-butyl-1-(4-{[tert-butyl(dimethyl)silyl]oxy}-3-chlorophenyl)-1H-pyrazol-5-yl]-3-[2-({[3-chloro-1-(3-methoxybenzyl)-6-methyl-2-oxo-1,2-dihydropyridin-4-yl]oxy}methyl)-5-fluorobenzyl]urea]",116,
"COc1cccc(Cn2c(C)cc(OCc3ccc(F)cc3CNC(=O)Nc3cc(C(C)(C)C)nn3-c3ccc(Cl)c(O)c3)c(Cl)c2=O)c1 [Example 45, 1-[3-tert-butyl-(4-chloro-3-hydroxyphenyl)-1H-pyrazol-5-yl]-3-[2-({[3-chloro-1-(3-methoxybenzyl)-6-methyl-2-oxo-1,2-dihydropyridin-4-yl]oxy}methyl)-5-fluorobenzyl]urea]",6.2,
"COC(=O)c1ccc(C)c(-n2c(SC)nc(OCc3ccccc3CNC(=O)Nc3cc(C(C)(C)C)nn3-c3ccc(C)cc3)cc2=O)c1 [Example 204, methyl 3-{4-[(2-{[({[3-tert-butyl-1-(4-methylphenyl)-1H-pyrazol-5-yl]amino}carbonyl)-amino]-methyl}-benzyl)oxy]-2-(methylthio)-6-oxopyrimidin-1(6H)-yl}-4-methylbenzoate]",,26.3

# Next, values leading:
IC50 [1] [nM],IC50 [2] [nM],Compound
,19.2,"COc1ccc(Cn2c(C)cc(OCc3ccccc3CNC(=O)Nc3cc(C(C)(C)C)nn3-c3ccc(O)c(Cl)c3)c(C)c2=O)cc1Cl [Example 266, 1-[3-tert-butyl-1-(3-chloro-4-hydroxyphenyl)-1H-pyrazol-5-yl]-3-[2-({[1-(3-chloro-4-methoxybenzyl)-3,6-dimethyl-2-oxo-1,2-dihydropyridin-4-yl]oxy}methyl)benzyl]urea]"
,4.2,"COCCNC(=O)c1ccc(C)c(-n2c(C)cc(OCc3ccc(F)cc3CNC(=O)Nc3cc(C(C)(C)C)nn3-c3ccc(Cl)c(O)c3)c(Cl)c2=O)c1 [Example 235, 3-{4-[(2-{[({[3-tert-butyl-1-(4-chloro-3-hydroxyphenyl)-1H-pyrazol-5-yl]amino}carbonyl)amino]methyl}-4-fluorobenzyl)-oxy]-3-chloro-6-methyl-2-oxopyridin-1(2H)-yl}-N-(2-methoxy-ethyl)-4-methylbenzamide]"
,9.6,"COC(=O)c1ccc(C)c(-n2c(C)cc(OCc3ccccc3CNC(=O)Nc3cc(C(C)(C)C)nn3-c3ccc(O)c(Cl)c3)c(Cl)c2=O)c1 [Example 222, methyl 3-{4-[(2-{[({[3-tert-butyl-1-(3-chloro-4-hydroxy-phenyl)-1H-pyrazol-5-yl]amino}carbonyl)amino]-methyl}-benzyl)oxy]-3-chloro-6-methyl-2-oxopyridin-1(2H)-yl}-4-methylbenzoate]"
,10.5,"COc1ccccc1Cn1c(C)cc(OCc2ccccc2CNC(=O)Nc2cc(C(C)(C)C)nn2-c2cccc(O)c2)c(Cl)c1=O [Example 247, 1-[3-tert-butyl-1-(3-hydroxyphenyl)-1H-pyrazol-5-yl]-3-[2-({[3-chloro-1-(2-methoxybenzyl)-6-methyl-2-oxo-1,2-dihydropyridin-4-yl]oxy}methyl)benzyl]urea]"
,13.7,"COc1ccc(Cn2c(C)cc(OCc3ccccc3CNC(=O)Nc3cc(C(C)(C)C)nn3-c3ccc(F)cc3F)c(C)c2=O)c(OC)c1 [Example 244, 1-[3-tert-butyl-1-(2,4-difluorophenyl)-1H-pyrazol-5-yl]-3-[2-({[1-(2,4-dimethoxybenzyl)-3,6-dimethyl-2-oxo-1,2-dihydropyridin-4-yl]oxy}methyl)benzyl]urea]"
,53.7,"COc1ccccc1Cn1c(C)cc(OCc2ccccc2CNC(=O)Nc2cc(C(C)(C)C)nn2-c2ccc(Cl)c(O)c2)c(C)c1=O [Example 275, 1-[3-tert-butyl-1-(4-chloro-3-hydroxyphenyl)-1H-pyrazol-5-yl]-3-[2-({[1-(2-methoxybenzyl)-3,6-dimethyl-2-oxo-1,2-dihydropyridin-4-yl]oxy}methyl)benzyl]urea]"
,3.67,"CNC(=O)c1ccc(C)c(-n2c(C)cc(OCc3ccc(F)cc3CNC(=O)Nc3cc(C(C)(C)C)nn3-c3ccc(C)cc3)c(Br)c2=O)c1 [Example 279, 3-{3-bromo-4-[(2-{[({[3-tert-butyl-1-(4-methylphenyl)-1H-pyrazol-5-yl]amino}carbonyl)-amino]methyl}-4-fluorobenzyl)oxy]-6-methyl-2-oxopyridin-1(2H)-yl}-N,4-dimethylbenzamide]"
